In US20230040402A1, “ANTITUMOR DRUG FOR USE IN COMBINATION WITH IMMUNE CHECKPOINT INHIBITOR” (NIPPON SHINYAKU CO., LTD., priority 2019, published 2023):

Tests used:
[1] = test system: mouse colorectal cancer cell line CT26; assay: Test Example 4: mPGES-1 inhibitor and anti-mouse CTLA-4 antibody in combination in allograft model of mouse colorectal cancer cell line CT26; assay type: in vivo; details: female BALB/c mouse
Excerpt: (§1) On the day of transplantation, after the culture supernatant was removed, CT26 was washed with HBSS and collected. Collected CT26 was suspended in HBSS and used as cells for transplantation.
Under anesthesia, 3.0×10^5 cells for transplantation were subcutaneously transplanted into the right-hand side abdomen of each female BALB/c mouse.
The anti-mouse CTLA-4 antibody was intraperitoneally administered to the mice of the single therapy group with the anti-mouse CTLA-4 antibody and the combination group, at a dosage of 100 µg/individual, twice a week after transplantation, from the 8th day of transplantation to the 20th day of transplantation.
Regarding the tumor volume (mm^3), the length and width of a tumor were measured by using an electronic caliper, and the tumor volume was calculated by the following formula

[2] = test system: mouse colorectal cancer cell line CT26; assay: Test Example 3: mPGES-1 inhibitor and anti-mouse PD-1 antibody in combination in allograft model of mouse colorectal cancer cell line CT26; assay type: in vivo; details: female BALB/c mouse, tumor volume on 21st day
Excerpt: as §1
Under anesthesia, 3.0x10^5 cells for transplantation were subcutaneously transplanted into the right-hand side abdomen of each female BALB/c mouse.
The anti-mouse PD-1 antibody was intraperitoneally administered to the mice of the single therapy group of the anti-mouse PD-1 antibody and the combination therapy group, at a dosage of 100 µg/individual, twice a week after transplantation, from the 7th day of transplantation to the 20th day of transplantation.
Regarding the tumor volume (mm^3), the length and width of a tumor were measured by using an electronic caliper, and the tumor volume was calculated by the following formula.

[3] = in combination with anti-mouse CTLA-4 antibody (100 µg/individual i.p. twice a week), compound 100 mg/kg orally twice a day, 8th to 20th day
[4] = used solely, 100 mg/kg (as free substance) orally twice a day, 8th to 20th day of transplantation
[5] = in combination with anti-mouse PD-1 antibody (100 µg/individual i.p. twice a week), compound 100 mg/kg orally twice a day, 7th to 20th day
[6] = used solely, 100 mg/kg (as free form) orally twice a day, 7th to 20th day of transplantation

COCc1nc2c(C(=O)Nc3cccc(Cl)c3C)cc(NC(=O)c3ccccc3C(F)(F)F)cc2[nH]1.Cc1ccc(S(=O)(=O)O)cc1 [compound 1, N-(3-chloro-2-methylphenyl)-2-(methoxymethyl)-6-({[2-(trifluoromethyl)phenyl]carbonyl}amino)-1H-benzimidazole-4-carboxamide 4-methylbenzenesulfonate]
tumor growth (tumor volume) [1, 3]: tumor growth was suppressed
tumor growth (tumor volume) [1, 4]: did not suppress tumor growth
tumor growth (tumor volume) [2, 5]: tumor growth was suppressed
tumor growth (tumor volume) [2, 6]: did not suppress tumor growth

Cc1c(Cl)cccc1NC(=O)c1cc(NC(=O)c2ccccc2C(F)(F)F)cc2[nH]c(C3(C(F)(F)F)CC3)nc12 [compound 2, N-(3-chloro-2-methylphenyl)-2-[1-(trifluoromethyl)cyclopropyl]-6-({[2-(trifluoromethyl)phenyl]carbonyl}amino)-1H-benzimidazole-4-carboxamide]
tumor growth (tumor volume) [1, 3]: tumor growth was suppressed
tumor growth (tumor volume) [1, 4]: did not suppress tumor growth
tumor growth (tumor volume) [2, 5]: tumor growth was suppressed
tumor growth (tumor volume) [2, 6]: did not suppress tumor growth
